Literature values as cited in paper PMC8915598.

Experiment: not told

SMILES	log partition octanol / water
CC(=O)Nc1ccc(Cl)cc1	2.12 log10
NC(=O)c1ccc(N)cc1	-0.41 log10
